For test [1], the target named is α1, non-selective. Put plainly: Receptor binding, α1 non-selective. To be noted: read-out: Setiptiline (Ki). The source says:
(§1) 5HT3 antagonists are used to treat various maladies of the gastrointestinal tract, such as irritable bowel syndrome-diarrhea predominant and nausea and vomiting associated with chemotherapy. One potentially serious side effect of strong 5HT3 antagonists is constipation, which in some cases may be so severe as to lead to ischemic colitis.

Test [2] concerns the target 5HT2, non-selective. Put plainly: Receptor binding, 5HT2 non-selective. To be noted: 5HT2, non-selective receptor; read-out: Setiptiline (Ki).
Source text: as §1

Another test addresses SERT (Homo sapiens, UniProt P31645). Put plainly: Receptor binding, SERT. To be noted: read-out: Setiptiline (Ki).
Source text: as §1

The target of test [3] is T1, 5HT3 (Homo sapiens, UniProt P46098).
T1 sequence (P46098 24-478): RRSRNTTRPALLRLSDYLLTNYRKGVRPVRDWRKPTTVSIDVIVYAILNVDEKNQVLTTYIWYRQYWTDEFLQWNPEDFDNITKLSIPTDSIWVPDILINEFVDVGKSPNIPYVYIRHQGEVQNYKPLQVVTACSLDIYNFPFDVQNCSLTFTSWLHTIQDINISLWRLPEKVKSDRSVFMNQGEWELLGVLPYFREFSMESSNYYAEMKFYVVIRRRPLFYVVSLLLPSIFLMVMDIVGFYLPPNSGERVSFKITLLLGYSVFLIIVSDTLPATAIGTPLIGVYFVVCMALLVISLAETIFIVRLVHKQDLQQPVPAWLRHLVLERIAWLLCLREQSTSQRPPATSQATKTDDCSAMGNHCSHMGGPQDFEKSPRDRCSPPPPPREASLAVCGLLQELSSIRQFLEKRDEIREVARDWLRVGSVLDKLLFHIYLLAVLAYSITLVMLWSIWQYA
Put plainly: Receptor binding, 5HT3. To be noted: 5HT3 receptor; read-out: Setiptiline (Ki).
Source text: as §1

In a further test the target is T2, Muscarinic M1 (Homo sapiens, UniProt P11229).
T2 sequence (P11229 1-460): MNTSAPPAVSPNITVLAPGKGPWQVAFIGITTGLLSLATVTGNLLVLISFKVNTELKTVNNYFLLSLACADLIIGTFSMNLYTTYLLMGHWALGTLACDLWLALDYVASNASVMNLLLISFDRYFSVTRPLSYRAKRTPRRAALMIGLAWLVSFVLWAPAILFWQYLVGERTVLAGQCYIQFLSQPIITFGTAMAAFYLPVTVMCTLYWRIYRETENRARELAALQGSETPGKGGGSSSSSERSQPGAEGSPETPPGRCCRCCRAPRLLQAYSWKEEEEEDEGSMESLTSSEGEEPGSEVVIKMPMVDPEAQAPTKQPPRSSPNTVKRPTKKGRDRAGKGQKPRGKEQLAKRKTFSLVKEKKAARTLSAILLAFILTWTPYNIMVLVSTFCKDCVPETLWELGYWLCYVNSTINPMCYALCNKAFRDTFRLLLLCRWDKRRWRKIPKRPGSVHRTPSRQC
Put plainly: Receptor binding, Muscarinic M1. To be noted: read-out: Setiptiline (Ki).
Source text: as §1

Test [4] concerns the target T3, 5HT2C (Homo sapiens, UniProt P28335). Put plainly: Receptor binding, 5HT2C. To be noted: 5HT2C receptor; read-out: Setiptiline (Ki).
Source text: as §1

The target of the next test is NET (Homo sapiens, UniProt P23975). Put plainly: Receptor binding, NET. To be noted: read-out: Setiptiline (Ki).
Source text: as §1

The target of test [5] is α2, non-selective. Put plainly: Receptor binding, α2 non-selective. To be noted: read-out: Setiptiline (Ki).
Source text: as §1

Test [6] has as its target T4, 5HT1A sertotonin receptor (Homo sapiens, UniProt P08908).
T4 sequence (P08908 1-422): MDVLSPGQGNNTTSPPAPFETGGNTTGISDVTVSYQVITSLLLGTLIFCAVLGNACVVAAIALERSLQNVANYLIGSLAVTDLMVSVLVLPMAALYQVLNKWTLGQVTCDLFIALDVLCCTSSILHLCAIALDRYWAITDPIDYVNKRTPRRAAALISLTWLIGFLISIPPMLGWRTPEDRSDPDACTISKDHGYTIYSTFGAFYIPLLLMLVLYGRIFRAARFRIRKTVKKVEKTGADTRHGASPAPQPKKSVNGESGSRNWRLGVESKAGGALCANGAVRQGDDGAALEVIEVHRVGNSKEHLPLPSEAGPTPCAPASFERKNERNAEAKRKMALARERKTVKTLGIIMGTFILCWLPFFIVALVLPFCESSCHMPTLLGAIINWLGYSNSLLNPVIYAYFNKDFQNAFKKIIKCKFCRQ
Put plainly: Affinity for the 5HT1A serotonin receptor. In kind it is binding. To be noted: read-out: affinity for the 5HT1A sertotonin receptor (pKi) (converted).

In test [7] the target is α2, non-selective. To be noted: read-out: Mirtazapine (Ki); α2, non-selective receptor; from de Boer et al., 1996; cited from earlier work.
Test [8] concerns the target T1, 5HT3. To be noted: read-out: Mirtazapine (Ki); 5HT3 receptor; from de Boer et al., 1996; cited from earlier work.
In test [9] the target is T3, 5HT2C. To be noted: read-out: Mirtazapine (Ki); 5HT2C receptor; from de Boer et al., 1996; cited from earlier work.
For test [10], the target named is α1, non-selective. To be noted: read-out: Mirtazapine (Ki); α1, non-selective receptor; from de Boer et al., 1996; cited from earlier work.
Test [11] concerns the target 5HT2, non-selective. To be noted: read-out: Mirtazapine (Ki); 5HT2, non-selective receptor; from de Boer et al., 1996; cited from earlier work.

Read-outs that look alike come from different tables or passages of the source.

T3 sequence (P28335 33-458, species assumed): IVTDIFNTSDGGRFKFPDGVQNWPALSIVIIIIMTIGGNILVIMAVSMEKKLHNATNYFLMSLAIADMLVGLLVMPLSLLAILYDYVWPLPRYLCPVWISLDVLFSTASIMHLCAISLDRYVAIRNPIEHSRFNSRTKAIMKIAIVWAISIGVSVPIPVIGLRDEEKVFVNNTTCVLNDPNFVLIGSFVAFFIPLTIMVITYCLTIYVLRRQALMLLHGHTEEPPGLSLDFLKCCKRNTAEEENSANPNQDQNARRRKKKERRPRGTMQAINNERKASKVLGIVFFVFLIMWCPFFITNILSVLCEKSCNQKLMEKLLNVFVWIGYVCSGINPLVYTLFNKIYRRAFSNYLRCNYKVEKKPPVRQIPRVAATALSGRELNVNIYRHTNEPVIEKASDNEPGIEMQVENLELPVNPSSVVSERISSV
Chain of NET (P23975 whole entry): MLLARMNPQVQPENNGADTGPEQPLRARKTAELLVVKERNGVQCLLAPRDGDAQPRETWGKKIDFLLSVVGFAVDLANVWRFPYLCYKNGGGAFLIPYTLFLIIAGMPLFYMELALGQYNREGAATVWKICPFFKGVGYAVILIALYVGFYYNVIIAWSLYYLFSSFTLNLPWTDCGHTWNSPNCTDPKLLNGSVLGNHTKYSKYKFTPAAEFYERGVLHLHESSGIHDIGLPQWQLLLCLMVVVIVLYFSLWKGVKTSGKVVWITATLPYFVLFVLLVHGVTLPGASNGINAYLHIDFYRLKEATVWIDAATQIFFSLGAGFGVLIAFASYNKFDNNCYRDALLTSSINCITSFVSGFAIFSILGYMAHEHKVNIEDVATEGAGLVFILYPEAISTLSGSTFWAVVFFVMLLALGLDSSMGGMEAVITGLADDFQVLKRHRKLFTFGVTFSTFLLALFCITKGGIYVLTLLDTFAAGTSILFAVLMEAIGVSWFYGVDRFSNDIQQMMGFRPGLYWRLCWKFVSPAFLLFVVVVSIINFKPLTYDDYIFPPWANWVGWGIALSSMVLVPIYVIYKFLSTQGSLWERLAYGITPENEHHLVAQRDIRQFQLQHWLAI
Chain of SERT (P31645 whole entry, species assumed): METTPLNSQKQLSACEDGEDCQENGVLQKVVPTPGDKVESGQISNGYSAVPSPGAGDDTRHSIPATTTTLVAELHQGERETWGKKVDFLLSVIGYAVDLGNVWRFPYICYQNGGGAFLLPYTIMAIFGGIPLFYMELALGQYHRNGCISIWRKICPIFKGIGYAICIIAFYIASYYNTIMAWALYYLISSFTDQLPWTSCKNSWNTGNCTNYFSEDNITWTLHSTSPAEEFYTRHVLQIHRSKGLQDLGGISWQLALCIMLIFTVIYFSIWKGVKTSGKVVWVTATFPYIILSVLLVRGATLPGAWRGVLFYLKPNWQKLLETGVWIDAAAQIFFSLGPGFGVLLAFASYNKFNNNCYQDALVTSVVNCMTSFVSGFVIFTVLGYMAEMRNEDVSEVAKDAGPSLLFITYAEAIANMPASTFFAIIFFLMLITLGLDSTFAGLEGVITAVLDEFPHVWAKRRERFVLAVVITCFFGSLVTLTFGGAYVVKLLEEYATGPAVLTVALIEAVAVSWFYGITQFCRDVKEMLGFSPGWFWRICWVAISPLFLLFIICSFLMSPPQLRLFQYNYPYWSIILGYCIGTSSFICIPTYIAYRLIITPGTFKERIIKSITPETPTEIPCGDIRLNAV

Consider `CN1CCC2=C(C1)c1ccccc1Cc1ccccc12`, for which the Ki is 0.144 µM at α1, non-selective [1]; 0.00071 µM on 5HT2, non-selective [2]; above 10 µM on SERT; 0.757 µM at 5HT3 [3]; 0.258 µM on Muscarinic M1; 0.00047 µM at 5HT2C [4]. The Ki at NET is 1.96 µM; on α2, non-selective [5], 0.093 µM.

With `CC1CN(c2cccc(Cl)c2)CCN1CCCn1nc2ccccn2c1=O` (centres unmarked) [MER 810], the Ki in [6] was 0.0851 µM.

As for `CN1CCN2c3ncccc3Cc3ccccc3C2C1` (centres unmarked) [Mirtazapine], the Ki at α2, non-selective [7] is 0.05 µM; at 5HT3 [8], 0.079 µM; at 5HT2C [9], 0.013 µM; at α1, non-selective [10] it was 0.501 µM; at 5HT2, non-selective [11], 0.0063 µM.
